Test results published in ChEMBL document CHEMBL1201862, “PubChem BioAssay data set” (2004).
Calls of active or inactive are those of the source.

Legend:
[1] = THP-1 cell cytotoxicity, dose response, cytotoxicity control for non-replicating M. tuberculosis project (AID 489025); assay type: functional
[2] = Vero E6 cell cytotoxicity, dose response, cytotoxicity control for non-replicating M. tuberculosis project, secondary assay (AID 492998); assay type: functional, VeroE6; settings: Vero C1008
[3] = microbe, parasite or virus in culture; assay type: functional; settings: Mycobacterium tuberculosis
[4] = Luminescence Cell-Based Dose Retest to Confirm Inhibitors of Cancer Stem Cells. [Related pubchem assays (depositor defined):AID2717, AID2721]; assay type: functional; settings: Homo sapiens
[5] = HepG2 cell cytotoxicity, dose response, cytotoxicity control for non-replicating M. tuberculosis project (AID 489018); assay type: functional; settings: Mycobacterium tuberculosis
cells [6] = assay type: functional
[7] = molecular target: Voltage-dependent T-type calcium channel subunit alpha-1H (Homo sapiens, UniProt O95180); assay type: functional;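 note: channel activity triggered by adding a high calcium stimulation buffer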
Estrogen receptor = molecular target: T1, Estrogen receptor (Homo sapiens, UniProt P03372);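 note: potency for inhibiting coactivator peptide recruitment to the receptor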
T1 sequence (P03372 whole entry): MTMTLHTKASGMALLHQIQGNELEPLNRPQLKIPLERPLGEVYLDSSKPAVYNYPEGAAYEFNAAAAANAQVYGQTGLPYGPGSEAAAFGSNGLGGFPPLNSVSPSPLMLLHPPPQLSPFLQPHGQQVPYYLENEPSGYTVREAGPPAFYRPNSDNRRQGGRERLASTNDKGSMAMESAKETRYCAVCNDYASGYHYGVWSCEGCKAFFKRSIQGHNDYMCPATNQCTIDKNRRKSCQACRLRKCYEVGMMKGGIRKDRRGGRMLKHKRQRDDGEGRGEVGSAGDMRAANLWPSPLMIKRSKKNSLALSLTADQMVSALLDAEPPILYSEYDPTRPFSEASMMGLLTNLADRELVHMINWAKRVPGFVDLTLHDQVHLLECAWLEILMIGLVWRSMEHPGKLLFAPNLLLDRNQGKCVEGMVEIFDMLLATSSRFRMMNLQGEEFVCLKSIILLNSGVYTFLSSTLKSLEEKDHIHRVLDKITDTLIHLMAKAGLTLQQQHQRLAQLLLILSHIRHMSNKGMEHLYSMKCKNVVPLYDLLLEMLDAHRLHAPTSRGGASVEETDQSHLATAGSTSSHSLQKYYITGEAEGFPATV

cells [8] = assay: cells
[9] = viability of uninfected HEp-2 cells – cell-based, HTS, cytotoxicity control for RSV inhibitor project, dose response (AID 2410); assay type: functional; settings: human respiratory syncytial virus
[10] = molecular target: Eukaryotic translation initiation factor 4E (Mus musculus, UniProt P63073); assay: blockers of eIF4G binding by eIF4E – biochemical, TR-FRET, dose response (AID 855); assay type: functional;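 note: potency for disrupting eIF4E binding to eIF4GI seen as loss of FRET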
Eukaryotic translation initiation factor 4E, sequence (P63073 whole entry): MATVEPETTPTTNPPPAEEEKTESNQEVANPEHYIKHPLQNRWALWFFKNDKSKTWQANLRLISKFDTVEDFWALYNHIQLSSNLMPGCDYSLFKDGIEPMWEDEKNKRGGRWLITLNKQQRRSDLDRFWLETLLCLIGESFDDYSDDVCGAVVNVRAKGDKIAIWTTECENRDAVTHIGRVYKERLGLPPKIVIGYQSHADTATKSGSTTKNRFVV

[11] = molecular target: Intestinal-type alkaline phosphatase (Mus musculus, UniProt P24822); assay: PubChem AID 488785; assay type: functional
Intestinal-type alkaline phosphatase (Mus musculus, UniProt P24822), sequence (P24822 whole entry): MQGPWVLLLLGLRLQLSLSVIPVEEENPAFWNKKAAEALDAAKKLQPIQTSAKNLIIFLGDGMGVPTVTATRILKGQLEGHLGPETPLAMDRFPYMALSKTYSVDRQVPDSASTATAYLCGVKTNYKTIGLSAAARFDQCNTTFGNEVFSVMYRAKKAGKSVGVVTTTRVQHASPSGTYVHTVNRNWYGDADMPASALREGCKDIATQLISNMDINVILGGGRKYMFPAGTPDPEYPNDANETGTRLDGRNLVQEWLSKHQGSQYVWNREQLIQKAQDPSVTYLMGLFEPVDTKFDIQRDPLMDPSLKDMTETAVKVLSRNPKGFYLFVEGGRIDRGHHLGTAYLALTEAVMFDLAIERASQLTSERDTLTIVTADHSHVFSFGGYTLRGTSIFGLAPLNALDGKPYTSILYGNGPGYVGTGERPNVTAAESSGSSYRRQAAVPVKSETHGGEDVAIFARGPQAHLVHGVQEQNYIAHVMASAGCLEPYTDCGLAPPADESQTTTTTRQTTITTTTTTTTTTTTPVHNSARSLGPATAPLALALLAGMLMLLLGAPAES

[12] = molecular target: Intestinal-type alkaline phosphatase (Homo sapiens, UniProt P09923); assay: inhibition of human intestinal alkaline phosphatase – biochemical, dose response (AID 488876); assay type: functional
Intestinal-type alkaline phosphatase (Homo sapiens, UniProt P09923), sequence (P09923 whole entry): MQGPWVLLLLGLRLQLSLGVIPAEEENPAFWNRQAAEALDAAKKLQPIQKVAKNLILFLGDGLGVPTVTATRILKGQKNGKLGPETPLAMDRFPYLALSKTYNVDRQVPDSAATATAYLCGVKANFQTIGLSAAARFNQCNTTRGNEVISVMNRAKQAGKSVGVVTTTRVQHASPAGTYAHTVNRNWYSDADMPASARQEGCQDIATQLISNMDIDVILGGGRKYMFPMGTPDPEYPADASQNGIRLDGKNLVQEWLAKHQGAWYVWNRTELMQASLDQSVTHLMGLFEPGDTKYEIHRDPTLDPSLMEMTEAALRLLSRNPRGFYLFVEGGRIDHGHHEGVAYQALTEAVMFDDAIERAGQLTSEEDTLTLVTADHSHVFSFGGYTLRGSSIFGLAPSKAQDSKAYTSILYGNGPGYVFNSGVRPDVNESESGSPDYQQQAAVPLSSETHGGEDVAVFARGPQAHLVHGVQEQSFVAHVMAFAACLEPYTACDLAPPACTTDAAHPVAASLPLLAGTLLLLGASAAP

[13] = molecular target: T2, Alkaline phosphatase, tissue-nonspecific isozyme (Homo sapiens, UniProt P05186); assay: TNAP enzyme inhibition by screening hits, dose response, selectivity assay for mouse IAP inhibitor project, biochemical, human TNAP, uHTS hits (AID 488906); assay type: functional
T2 sequence (P05186 whole entry): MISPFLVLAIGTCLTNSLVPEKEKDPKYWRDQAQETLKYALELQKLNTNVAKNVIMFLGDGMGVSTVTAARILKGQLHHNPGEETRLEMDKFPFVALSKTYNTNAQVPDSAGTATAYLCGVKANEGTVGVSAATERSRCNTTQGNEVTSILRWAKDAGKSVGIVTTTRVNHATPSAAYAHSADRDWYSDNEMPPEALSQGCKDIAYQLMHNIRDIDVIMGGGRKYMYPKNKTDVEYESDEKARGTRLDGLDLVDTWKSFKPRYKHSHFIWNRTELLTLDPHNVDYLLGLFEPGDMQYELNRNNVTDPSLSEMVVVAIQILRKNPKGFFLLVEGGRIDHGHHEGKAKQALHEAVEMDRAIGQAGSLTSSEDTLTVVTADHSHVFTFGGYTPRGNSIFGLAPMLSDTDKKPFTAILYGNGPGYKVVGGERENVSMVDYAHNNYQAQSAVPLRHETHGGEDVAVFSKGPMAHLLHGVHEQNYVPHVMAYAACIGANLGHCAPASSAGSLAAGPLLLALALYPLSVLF

[14] = molecular target: T3, Voltage-gated N-type calcium channel alpha-1B subunit/Amyloid beta A4 precursor protein-binding family A member 1 (Homo sapiens, UniProt Q00975+Q02410); assay type: protein assay
T3 sequence (Q00975 whole entry): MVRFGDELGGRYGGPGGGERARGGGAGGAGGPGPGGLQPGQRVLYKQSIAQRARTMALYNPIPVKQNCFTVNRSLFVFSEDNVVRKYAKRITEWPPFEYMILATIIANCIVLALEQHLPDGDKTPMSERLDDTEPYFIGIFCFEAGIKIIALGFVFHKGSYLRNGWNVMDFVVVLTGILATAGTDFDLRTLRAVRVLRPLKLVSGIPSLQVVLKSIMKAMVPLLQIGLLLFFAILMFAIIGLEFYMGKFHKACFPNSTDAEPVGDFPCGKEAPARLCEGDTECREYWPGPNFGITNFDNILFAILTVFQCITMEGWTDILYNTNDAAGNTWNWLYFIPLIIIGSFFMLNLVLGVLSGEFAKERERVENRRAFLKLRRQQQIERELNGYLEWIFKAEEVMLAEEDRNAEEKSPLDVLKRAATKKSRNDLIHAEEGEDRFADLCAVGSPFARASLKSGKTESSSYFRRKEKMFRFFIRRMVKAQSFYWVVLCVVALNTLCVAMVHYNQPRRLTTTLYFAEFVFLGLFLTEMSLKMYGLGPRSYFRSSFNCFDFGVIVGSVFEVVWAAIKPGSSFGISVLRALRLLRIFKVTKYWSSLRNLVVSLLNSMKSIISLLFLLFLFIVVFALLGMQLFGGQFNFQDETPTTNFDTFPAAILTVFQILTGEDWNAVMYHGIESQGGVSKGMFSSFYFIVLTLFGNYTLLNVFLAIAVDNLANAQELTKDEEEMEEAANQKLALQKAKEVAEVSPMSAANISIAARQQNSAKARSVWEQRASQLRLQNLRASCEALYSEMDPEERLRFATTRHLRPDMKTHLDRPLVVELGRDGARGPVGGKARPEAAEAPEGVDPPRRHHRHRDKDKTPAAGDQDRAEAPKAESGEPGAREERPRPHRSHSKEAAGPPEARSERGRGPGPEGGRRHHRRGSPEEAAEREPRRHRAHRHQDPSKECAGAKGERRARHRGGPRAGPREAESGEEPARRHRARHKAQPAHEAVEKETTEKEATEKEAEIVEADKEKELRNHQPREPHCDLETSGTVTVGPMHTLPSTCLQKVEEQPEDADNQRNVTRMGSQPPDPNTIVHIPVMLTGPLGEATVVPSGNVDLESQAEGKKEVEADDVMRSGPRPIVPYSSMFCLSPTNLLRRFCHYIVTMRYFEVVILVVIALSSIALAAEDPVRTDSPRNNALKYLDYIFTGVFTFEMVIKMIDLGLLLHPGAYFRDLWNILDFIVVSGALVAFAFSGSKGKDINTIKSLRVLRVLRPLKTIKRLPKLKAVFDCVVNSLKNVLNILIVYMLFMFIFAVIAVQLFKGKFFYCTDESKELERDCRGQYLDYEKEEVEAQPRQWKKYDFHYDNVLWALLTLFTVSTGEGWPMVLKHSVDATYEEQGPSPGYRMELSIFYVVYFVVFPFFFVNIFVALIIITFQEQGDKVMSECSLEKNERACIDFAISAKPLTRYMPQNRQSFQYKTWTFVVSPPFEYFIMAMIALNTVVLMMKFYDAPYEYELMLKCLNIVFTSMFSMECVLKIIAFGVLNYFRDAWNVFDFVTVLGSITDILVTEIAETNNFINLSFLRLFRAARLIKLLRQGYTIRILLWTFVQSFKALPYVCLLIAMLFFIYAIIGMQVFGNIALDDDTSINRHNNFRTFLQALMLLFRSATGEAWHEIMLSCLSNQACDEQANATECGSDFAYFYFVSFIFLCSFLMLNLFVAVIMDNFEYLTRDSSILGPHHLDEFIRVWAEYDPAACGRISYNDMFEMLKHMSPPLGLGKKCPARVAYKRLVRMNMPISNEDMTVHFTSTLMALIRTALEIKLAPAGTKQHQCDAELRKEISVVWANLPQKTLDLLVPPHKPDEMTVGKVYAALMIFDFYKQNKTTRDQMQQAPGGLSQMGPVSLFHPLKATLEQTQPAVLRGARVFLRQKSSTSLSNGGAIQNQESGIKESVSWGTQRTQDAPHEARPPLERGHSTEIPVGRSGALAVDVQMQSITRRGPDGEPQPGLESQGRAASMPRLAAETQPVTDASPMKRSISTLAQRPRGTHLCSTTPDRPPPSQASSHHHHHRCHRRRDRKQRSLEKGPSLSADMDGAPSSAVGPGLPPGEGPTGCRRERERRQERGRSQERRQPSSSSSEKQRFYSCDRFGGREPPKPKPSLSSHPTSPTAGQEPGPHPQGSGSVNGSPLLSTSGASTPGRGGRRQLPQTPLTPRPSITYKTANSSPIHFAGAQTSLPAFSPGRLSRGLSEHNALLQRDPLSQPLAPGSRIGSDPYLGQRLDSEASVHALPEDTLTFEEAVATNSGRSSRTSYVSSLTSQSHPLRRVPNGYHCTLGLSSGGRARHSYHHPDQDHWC
T3 sequence (Q02410 whole entry): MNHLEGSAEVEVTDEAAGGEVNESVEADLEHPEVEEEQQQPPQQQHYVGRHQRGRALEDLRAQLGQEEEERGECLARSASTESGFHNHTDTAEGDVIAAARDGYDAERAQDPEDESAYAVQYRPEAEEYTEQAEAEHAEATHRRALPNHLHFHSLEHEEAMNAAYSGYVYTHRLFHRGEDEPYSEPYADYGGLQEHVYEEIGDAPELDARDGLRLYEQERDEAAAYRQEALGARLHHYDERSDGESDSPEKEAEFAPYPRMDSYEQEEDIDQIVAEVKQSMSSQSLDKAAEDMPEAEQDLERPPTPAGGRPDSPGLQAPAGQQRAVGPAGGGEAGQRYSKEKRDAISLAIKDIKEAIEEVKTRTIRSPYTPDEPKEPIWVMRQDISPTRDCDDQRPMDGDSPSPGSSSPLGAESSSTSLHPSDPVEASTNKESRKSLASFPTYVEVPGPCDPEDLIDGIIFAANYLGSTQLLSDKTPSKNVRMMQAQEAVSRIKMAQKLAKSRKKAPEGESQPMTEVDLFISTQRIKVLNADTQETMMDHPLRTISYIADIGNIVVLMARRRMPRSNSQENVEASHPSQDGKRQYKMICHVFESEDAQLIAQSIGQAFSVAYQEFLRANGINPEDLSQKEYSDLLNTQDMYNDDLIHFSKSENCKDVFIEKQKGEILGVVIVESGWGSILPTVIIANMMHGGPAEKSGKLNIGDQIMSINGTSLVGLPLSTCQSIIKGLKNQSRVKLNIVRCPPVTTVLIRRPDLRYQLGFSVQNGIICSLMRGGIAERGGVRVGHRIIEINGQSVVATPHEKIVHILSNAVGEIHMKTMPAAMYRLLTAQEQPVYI

[15] = molecular target: T3, Voltage-gated N-type calcium channel alpha-1B subunit/Amyloid beta A4 precursor protein-binding family A member 1; assay type: protein assay; remark: listed apart in the source
[16] = molecular target: Eukaryotic translation initiation factor 4H (Homo sapiens, UniProt Q15056); assay: eIF4H binding inhibition – biochemical, uHTS, fluorescence polarization, translation initiation inhibitor project, primary screen (AID 2012)
[17] = molecular target: DNA dC->dU-editing enzyme APOBEC-3G (Homo sapiens, UniProt Q9HC16); assay type: functional;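 note: Dose-response counterscreen measuring inhibition of APOBEC3G DNA deaminase activity, run while confirming APOBEC3A inhibitors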
DNA dC->dU-editing enzyme APOBEC-3G, sequence (Q9HC16 whole entry): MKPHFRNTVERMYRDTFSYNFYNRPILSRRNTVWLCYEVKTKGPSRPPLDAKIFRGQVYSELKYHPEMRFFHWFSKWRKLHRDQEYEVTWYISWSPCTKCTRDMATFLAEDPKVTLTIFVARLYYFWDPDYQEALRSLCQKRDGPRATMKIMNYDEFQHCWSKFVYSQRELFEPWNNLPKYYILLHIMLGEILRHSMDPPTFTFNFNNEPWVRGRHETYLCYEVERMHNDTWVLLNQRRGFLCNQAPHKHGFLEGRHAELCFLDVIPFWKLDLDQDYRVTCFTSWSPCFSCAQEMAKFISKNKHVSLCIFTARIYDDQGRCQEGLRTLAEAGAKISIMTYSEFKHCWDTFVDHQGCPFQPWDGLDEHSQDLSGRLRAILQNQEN

[18] = molecular target: Polyadenylate-binding protein 1 (Homo sapiens, UniProt P11940); assay: blockers of PABP interaction with poly(A) – biochemical, fluorescence polarization, […] (AID 2014)
[19] = molecular target: DNA dC->dU-editing enzyme APOBEC-3A (Homo sapiens, UniProt P31941); assay: Dose Response confirmation of small molecule APOBEC3A DNA Deaminase Inhibitors via a fluorescence-based single-stranded DNA deaminase assay. [Related pubchem assays (depositor defined):AID493011, AID493024]; assay type: functional
DNA dC->dU-editing enzyme APOBEC-3A, sequence (P31941 whole entry): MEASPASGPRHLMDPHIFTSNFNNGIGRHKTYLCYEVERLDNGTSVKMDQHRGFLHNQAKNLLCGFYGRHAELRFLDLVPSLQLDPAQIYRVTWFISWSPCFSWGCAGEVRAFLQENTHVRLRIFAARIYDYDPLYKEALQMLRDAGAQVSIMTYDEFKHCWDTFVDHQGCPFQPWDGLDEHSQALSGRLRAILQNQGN

[20] = molecular target: T4, Corticotropin-releasing factor receptor 2/Corticotropin-releasing factor-binding protein (Homo sapiens, UniProt P24387+Q13324); assay: activators of CRF receptor 2 with binding protein – uHTS hits, confirmation (AID 602473); assay type: functional; settings: read-out: EC50_Mean
T4 sequence (Q13324 whole entry): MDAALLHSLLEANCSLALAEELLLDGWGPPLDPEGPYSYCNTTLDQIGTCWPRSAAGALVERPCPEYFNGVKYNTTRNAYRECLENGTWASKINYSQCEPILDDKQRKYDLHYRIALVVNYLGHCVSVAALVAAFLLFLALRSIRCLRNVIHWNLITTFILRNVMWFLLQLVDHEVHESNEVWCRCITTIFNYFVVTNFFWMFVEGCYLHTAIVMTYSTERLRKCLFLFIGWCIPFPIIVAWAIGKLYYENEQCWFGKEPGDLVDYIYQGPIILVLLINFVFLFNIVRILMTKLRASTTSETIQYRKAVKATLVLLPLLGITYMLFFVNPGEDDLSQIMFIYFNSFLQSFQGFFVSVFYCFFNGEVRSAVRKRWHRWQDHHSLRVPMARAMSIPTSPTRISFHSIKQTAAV
T4 sequence (P24387 whole entry): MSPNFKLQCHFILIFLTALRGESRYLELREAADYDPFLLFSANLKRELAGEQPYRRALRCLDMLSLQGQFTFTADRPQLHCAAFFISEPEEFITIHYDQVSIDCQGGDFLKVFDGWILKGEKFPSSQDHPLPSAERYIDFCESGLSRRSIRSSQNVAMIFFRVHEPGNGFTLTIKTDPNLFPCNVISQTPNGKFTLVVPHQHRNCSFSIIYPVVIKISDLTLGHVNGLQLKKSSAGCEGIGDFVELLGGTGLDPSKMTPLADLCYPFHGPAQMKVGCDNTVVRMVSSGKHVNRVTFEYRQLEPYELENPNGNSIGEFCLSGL
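Throughout, for AC50: cells exposed to compound for roughly 70 hours or longer before luminescence read.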

Question: With `COc1cc(CNCCc2ccccc2)cc(Cl)c1OCc1ccccc1` as the compound, how does the CC50 [1] read?
Answer: 13.7 µM (active)

Question: What about the CC50 [2] of the same compound?
Answer: 17.4 µM (active)

Question: What about the CC50 [3] of the same compound?
Answer: 22.9 µM (active)

Question: And the AC50 [4]?
Answer: 5.32 µM (active)

Question: What about the CC50 [5] of the same compound?
Answer: 15.5 µM (active)

Question: What about the IC50 (cells [6]) of the same compound?
Answer: 13.9 µM (active)

Question: Which EC50 [7] does the source give for `Cc1cc(NC(=O)CSc2cn(CCNC(=O)c3ccc(Cl)cc3)c3ccccc23)no1` here?
Answer: 0.13 µM (active)

Question: And the IC50 (Estrogen receptor)?
Answer: 24.9 µM (active)

Question: Which results are given for `COc1cccc(NC(=O)CSc2nc3ccccc3nc2N2CCCC2)c1`?
Answer: IC50 (cells [8]): 30.5 µM (active); CC50 [9]: 17.2 µM (active)

Question: With `C=CCn1c(S)nnc1-c1ccoc1` as the compound, how does the IC50 [10] read?
Answer: > 64 µM (inactive)

Question: With `CCCCCOc1ccc(C(=O)CCC(=O)NNC(=O)c2ccncc2)cc1` as the compound, how does the IC50 [11] read?
Answer: 14.7 µM (active)

Question: And the IC50 [12]?
Answer: 25.6 µM (active)

Question: And the IC50 [13]?
Answer: > 100 µM (inactive)

Question: With `CC(=O)c1cccc(NC(=O)Cc2cccs2)c1` as the compound, how does the IC50 (Estrogen receptor) read?
Answer: 18.5 µM (active)

Question: With `NC(=O)c1ccc2c(O)c(O)c(-c3cc(Cl)c(N)c(Cl)c3)nc2c1` as the compound, how does the IC50 [14] read?
Answer: 28.9 µM (active)

Question: What about the IC50 [15] of the same compound?
Answer: 14.1 µM (active)

Question: What does the source list for `C=CCNC1=N[C@@H](c2cccc(C(F)(F)F)c2)C(C(=O)OC)=C(C)N1CC`?
Answer: IC50 [16]: > 100 µM (inactive); IC50 [17]: 3.81 µM (active); IC50 [18]: 9.23 µM (active); IC50 [19]: 3.56 µM (active)

Question: For `CCCN(CCC)S(=O)(=O)c1ccc(C(=O)Nc2nnc(-c3cccc(OC)c3)o2)cc1`, which CC50 [1] is on record?
Answer: 1.49 µM (active)

Question: What about the CC50 [2] of the same compound?
Answer: 3.51 µM (active)

Question: What about the CC50 [5] of the same compound?
Answer: 12.4 µM (active)

Question: And the EC50 [20]?
Answer: 5.45 µM (active)

Question: And the IC50 (cells [6])?
Answer: 15.1 µM (active)
